# Measurements: US20260034121A1, “COMPOSITIONS AND METHODS FOR ALPHA-SYNUCLEIN FIBRIL GROWTH INHIBITION” (Washington University, priority 2024, published 2026)
# Biological target: T1, aSyn fibril growth (in vitro aSyn fibrils) (Homo sapiens, UniProt P37840)
# T1 construct: made in house; host or cells: E. coli BL21-CodonPlus (DE3)-RIL, pRK172 plasmid
# Assay: FlAsH fluorescence fibril growth assay with in vitro assembled aSyn fibril seeds
# Format: biochemical
# From the text: Inhibition of fibril growth by small molecule compounds is likely to be mediated primarily by binding interactions with either monomer, fibrils, or both. However, secondary nucleation may occur and contribute to fibril growth under some conditions, and compounds may affect growth through interaction with oligomeric intermediates to inhibit conversion to fibrils. In one proposed mechanism, a compound binds to the end surface of fibrils and interferes with the binding of the new monomer required to extend the seed or fibril (FIG. 1). Since binding will deplete the free concentration of the inhibitor, measured IC50 values will be proportional to the concentration of the binding target (fibril seeds) and proportional to the concentration of monomer, with which the inhibitor competes for binding.
# The fibril growth assay was performed similarly to previously published methods. […] Maximum inhibition is calculated as (Intensity100μM−Intensity0μM)/Intensity0μM×100% where Intensity100μM and Intensity0μM is the intensity at 100 μM of compound and intensity with no compound in the presence of fibrils and monomers.
smiles,measurement,setting,value
"CCOC(=O)C1CCN(Cc2cc(OC)c(O)c(OC)c2)CC1 [Compound 1, ethyl 1-[(4-hydroxy-3,5-dimethoxyphenyl)methyl]piperidine-4-carboxylate]",inhibition at 100 µM,"at 100 μM compound versus no compound, read-out: Max Inhibition [%] [mean ± std]",79%
same,IC50,"read-out: IC50 [95% Cl] [μM] [mean ± std], 1 μM fibril seeds, 3 μM C2-aSyn monomer, 3-hour incubation",18 µM
